Reference: ChEMBL document CHEMBL4043194, “Nrf2 activators from Glycyrrhiza inflata and their hepatoprotective activities against CCl4-induced liver injury in mice” (Bioorg Med Chem, 2017)
Activity calls are given as the source filed them. The calls are words filed in the database; no cut-off is given here.

Experiments:
HepG2 [1] = test: Cytotoxicity in human HepG2 cells expressing Nrf2/ARE-driven luciferase at 20 to 40 uM incubated for 6 hrs; type: cell-based; settings: hepg2, 6 h
Rattus norvegicus [2] = test: Apparent clearance during terminal phase in Sprague-Dawley rat at 50 mg/kg, po administered as single dose measured after 0.08 to 24 hrs post dose by LC/MS/MS method; type: ADME, organism-based; settings: in vivo
[3] = Cmax in Sprague-Dawley rat at 50 mg/kg, po administered as single dose measured after 0.08 to 24 hrs post dose by LC/MS/MS method; type: ADME, organism-based; set-up: dose 50 mg/kg, route oral; settings: in vivo
[4] = Apparent volume of distribution during terminal phase in Sprague-Dawley rat at 50 mg/kg, po administered as single dose measured after 0.08 to 24 hrs post dose by LC/MS/MS method; type: ADME, organism-based; settings: in vivo, read-out: Vz/F
Mus musculus [5] = test: (§1) Hepatoprotective activity against CCL4-induced liver damage in ICR mouse assessed as reduction in liver lesions by measuring neutrophil infiltration at 50 mg/kg, po administered once daily for 7 consecutive days followed by CCL4 challenge 6 hrs after last dose and measured 24 hrs post CCL4 injection by hematoxylin-eosin staining based light microscopy; type: functional, organism-based
Mus musculus [6] = test: Hepatoprotective activity against CCL4-induced liver damage in ICR mouse assessed as LDH level at 50 mg/kg, po administered once daily for 7 consecutive days followed by CCL4 challenge 6 hrs after last dose and measured 24 hrs post CCL4 injection (reference value: 2818 U/L); type: functional
Rattus norvegicus [7] = test: VRT (0 to infinity) in Sprague-Dawley rat at 50 mg/kg, po administered as single dose measured after 0.08 to 24 hrs post dose by LC/MS/MS method; type: ADME, organism-based; settings: in vivo
[8] = target: T1, Nuclear factor erythroid 2-related factor 2 (Homo sapiens) (UniProt Q16236); test: Activation of Nrf2 (unknown origin) expressed in human HepG2 cells assessed as cytoprotection against CCL4-induced cell injury by measuring increase in cell viability at 2.5 to 20 uM relative to untreated control; type: cell-based
T1 sequence (whole entry): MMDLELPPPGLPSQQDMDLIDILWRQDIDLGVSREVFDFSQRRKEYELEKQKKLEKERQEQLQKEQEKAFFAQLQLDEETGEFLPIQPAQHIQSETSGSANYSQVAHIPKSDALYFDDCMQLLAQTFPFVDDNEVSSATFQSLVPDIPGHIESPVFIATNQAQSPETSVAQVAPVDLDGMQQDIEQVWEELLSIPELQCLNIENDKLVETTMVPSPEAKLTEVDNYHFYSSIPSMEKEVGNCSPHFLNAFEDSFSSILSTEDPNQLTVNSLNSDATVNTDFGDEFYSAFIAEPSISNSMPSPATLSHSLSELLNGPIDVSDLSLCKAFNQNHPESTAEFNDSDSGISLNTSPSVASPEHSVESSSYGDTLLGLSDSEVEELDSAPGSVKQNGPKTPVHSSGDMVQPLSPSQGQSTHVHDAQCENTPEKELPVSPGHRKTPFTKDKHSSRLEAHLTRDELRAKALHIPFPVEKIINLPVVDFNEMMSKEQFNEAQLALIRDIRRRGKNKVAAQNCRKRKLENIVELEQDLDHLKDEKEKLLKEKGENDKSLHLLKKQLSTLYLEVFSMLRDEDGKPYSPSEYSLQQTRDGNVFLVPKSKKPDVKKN

Mus musculus [9] = test: as §1, with “necrosis” for “neutrophil infiltration”; type: functional, organism-based
[10] = target: T1, Nuclear factor erythroid 2-related factor 2 (Homo sapiens); test: Activation of Nrf2 (unknown origin) expressed in human HepG2 cells at 10 uM incubated for 6 hrs by ARE-driven luciferase reporter gene assay relative to untreated control; type: cell-based
Mus musculus [11] = test: Hepatoprotective activity against CCL4-induced liver damage in ICR mouse assessed as alanine aminotransferase level at 50 mg/kg, po administered once daily for 7 consecutive days followed by CCL4 challenge 6 hrs after last dose and measured 24 hrs post CCL4 injection (reference value: 1025 U/L); type: functional
[12] = Tmax in Sprague-Dawley rat at 50 mg/kg, po administered as single dose measured after 0.08 to 24 hrs post dose by LC/MS/MS method; type: ADME, organism-based; settings: in vivo
[13] = AUC (0 to t) in Sprague-Dawley rat at 50 mg/kg, po administered as single dose measured after 0.08 to 24 hrs post dose by LC/MS/MS method; type: ADME, organism-based; set-up: dose 50 mg/kg, time 0.08-24 hr, route oral; settings: in vivo
Rattus norvegicus [14] = test: VRT (0 to t) in Sprague-Dawley rat at 50 mg/kg, po administered as single dose measured after 0.08 to 24 hrs post dose by LC/MS/MS method; type: ADME, organism-based; settings: in vivo
Mus musculus [15] = test: as §1, with “ballooning degeneration” for “neutrophil infiltration”; type: functional, organism-based
[16] = MRT (0 to t) in Sprague-Dawley rat at 50 mg/kg, po administered as single dose measured after 0.08 to 24 hrs post dose by LC/MS/MS method; type: ADME, organism-based; settings: in vivo
Rattus norvegicus [17] = test: AUC (0 to infinity) in Sprague-Dawley rat at 50 mg/kg, po administered as single dose measured after 0.08 to 24 hrs post dose by LC/MS/MS method; type: ADME, organism-based; set-up: dose 50 mg/kg, time infinity, route oral; settings: in vivo
[18] = target: T1, Nuclear factor erythroid 2-related factor 2 (Homo sapiens); test: Activation of Nrf2 (unknown origin) expressed in human HepG2 cells at 2.5 to 20 uM incubated for 6 hrs by ARE-driven luciferase reporter gene assay; type: cell-based
Mus musculus [19] = test: Hepatoprotective activity against CCL4-induced liver damage in ICR mouse assessed as aspartate aminotransferase level at 50 mg/kg, po administered once daily for 7 consecutive days followed by CCL4 challenge 6 hrs after last dose and measured 24 hrs post CCL4 injection (reference value: 625 U/L); type: functional
[20] = Half life in Sprague-Dawley rat at 50 mg/kg, po administered as single dose measured after 0.08 to 24 hrs post dose by LC/MS/MS method; type: ADME, organism-based; settings: in vivo
[21] = MRT (0 to infinity) in Sprague-Dawley rat at 50 mg/kg, po administered as single dose measured after 0.08 to 24 hrs post dose by LC/MS/MS method; type: ADME, organism-based; settings: in vivo
Mus musculus [22] = test: Hepatoprotective activity against CCL4-induced liver damage in ICR mouse assessed as LDH level at 100 mg/kg, po administered once daily for 7 consecutive days followed by CCL4 challenge 6 hrs after last dose and measured 24 hrs post CCL4 injection (reference value: 2818 U/L); type: functional, organism-based
Mus musculus [23] = test: Hepatoprotective activity against CCL4-induced liver damage in ICR mouse assessed as alanine aminotransferase level at 100 mg/kg, po administered once daily for 7 consecutive days followed by CCL4 challenge 6 hrs after last dose and measured 24 hrs post CCL4 injection (reference value: 1025 U/L); type: functional, organism-based
Mus musculus [24] = test: as §1, with “100” for “50”; type: functional, organism-based
Mus musculus [25] = test: Hepatoprotective activity against CCL4-induced liver damage in ICR mouse assessed as aspartate aminotransferase level at 100 mg/kg, po administered once daily for 7 consecutive days followed by CCL4 challenge 6 hrs after last dose and measured 24 hrs post CCL4 injection (reference value: 625 U/L); type: functional, organism-based
Mus musculus [26] = test: as §1, with “ballooning degeneration” for “neutrophil infiltration”, “100” for “50”; type: functional, organism-based
Mus musculus [27] = test: as §1, with “necrosis” for “neutrophil infiltration”, “100” for “50”; type: functional, organism-based
[28] = target: T1, Nuclear factor erythroid 2-related factor 2 (Homo sapiens); test: Activation of Nrf2 (unknown origin) expressed in human HepG2 cells at 2.5 to 10 uM incubated for 6 hrs by ARE-driven luciferase reporter gene assay; type: cell-based
HepG2 [29] = test: Cytotoxicity in human HepG2 cells expressing Nrf2/ARE-driven luciferase at 10 to 40 uM incubated for 6 hrs; type: cell-based; settings: hepg2, 6 h

Compound | Activity (HepG2 [1]) | CLz/F (Rattus norvegicus [2]) [L/h/kg] | Cmax [3] [ng/mL] | Vd/F [4] [L/kg] | Activity (Mus musculus [5]) | Activity (Mus musculus [6]) | VRT (Rattus norvegicus [7]) [hr2] | Activity [8] [%] | Activity (Mus musculus [9]) | fold change (FC) [10] | Activity (Mus musculus [11]) | Tmax [12] [h] | AUC(0-t) [13] [ng·h/mL] | VRT(t) (Rattus norvegicus [14]) [hr2] | Activity (Mus musculus [15]) | MRT last [16] [h] | AUC (Rattus norvegicus [17]) [µg·h/L] | Activity [18] | Activity (Mus musculus [19]) | half-life [20] [min] | also measured
COc1cc(O)ccc1/C=C/C(=O)c1ccc(O)cc1 [ECHINATIN] | Toxic | 20.97 | 228 | 154 | Active | 800 - 1200 U/L | 217.15 | > 60 | Active | 4.09 | 70 - 100 U/L | 0.5 | 686 | 9.97 | Active | 3.98 | 1154.92 | Dose-dependent effect | 150 - 180 U/L | 439 | MRT inf [21]: 3.98 h
SILYMARIN |  |  |  |  |  |  |  |  |  |  |  |  |  |  |  |  |  |  |  |  | Activity (Mus musculus [22]): 800 to 1200 U/L; Activity (Mus musculus [23]): 70 to 100 U/L; Activity (Mus musculus [24]): Active; Activity (Mus musculus [25]): 150 to 180 U/L; Activity (Mus musculus [26]): Active; Activity (Mus musculus [27]): Active
COc1c(/C=C/C(=O)c2ccc(O)cc2)ccc(O)c1O | Toxic |  |  |  | Active | 800 - 1200 U/L |  | > 60 | Active | 5.17 | 70 - 100 U/L |  |  |  | Active |  |  | Dose-dependent effect | 150 - 180 U/L |  | 
C=CC(C)(C)c1cc(/C=C/C(=O)c2ccc(O)cc2)c(OC)cc1O [LICOAGROCHACONE A] |  | 23.39 | 96.8 | 370 | Active | 800 - 1200 U/L | 256.28 | > 60 | Active | 4.07 | 70 - 100 U/L | 2.5 | 837 | 40.43 | Active | 8.48 | 993.88 |  | 150 - 180 U/L | 620 | Activity [28]: Dose-dependent effect; Activity (HepG2 [29]): Toxic; MRT inf [21]: 14.5 h
